Common to all, as to type: cell-based
The test system of series [1] is A3 cell lines. Nature of the series: MTT assay, A3 cell lines (lung cancer stem cell). From the text: Please to FIG. 4B, various cell viabilities of the A3 cell lines can be obtained through the MTT assay and illustrated in FIG. 4B while the compounds No. 1˜30 are used to treat A3 cell lines, wherein A3 cell lines are lung cancer stem cell.
Series [2] can be described thus: MTT assay, HEL299 fibroblast. Conditions: human. The text has this:
Please refer to FIG. 4C, various cell viabilities of the HEL299 cell lines can be obtained through the MTT assay while the compounds No. 1˜30 are used to treat HEL299 cell lines, wherein HEL299 cell lines are fibroblast.

The subject of series [3] is A control cell lines. Nature of the series: MTT assay, A control cell lines (lung cancer cell). From the text: Please refer to Table 1 and FIGS. 4A-4C. According to a MTT assay (Table 1), various cell viabilities of the A control cell lines can be obtained and illustrated in FIG. 4A while the compounds No. 2˜30 are used to treat A control cell lines, wherein A control cell lines are lung cancer cell.

From patent US8410161B2, “Thioxanthone ring system derivatives” (National Defense Medical Center, priority 2010, dated 2013) come the findings set out here.

On to `O=c1c2ccccc2sc2c(Cl)c(Cl)ccc12` [No. 1, 3,4-dichloro-9H-thioxanthen-9-one], for which the “cell viabilities of A3 cell lines (MTT assay)” value in series [1] came out at 83.7 ± 6.22%. For the same compound, the viability in series [2] was determined as 68.5 ± 12%.
For `COc1ccc(Sc2ccc3c(=O)c4ccccc4sc3c2Cl)cc1` [No. 17, 4-Chloro-3-(4-methoxylphenylthio)-9H-thioxanthen-9-one], in series [1], the “cell viabilities of A3 cell lines (MTT assay)” value is given as 89.4 ± 1.88%. Moreover, the “cell viabilities of A control cell lines (MTT assay)” value in series [3] worked out at 97.1 ± 8.74%. Moreover, the viability in series [2] turned out to be 109 ± 14.5%.
Turning to `Cc1ccccc1Sc1ccc2c(=O)c3ccccc3sc2c1Cl` [No. 7, 4-Chloro-3-(o-tolylthio)-9H-thioxanthen-9-one], the “cell viabilities of A3 cell lines (MTT assay)” value in series [1] turned out to be 81.6 ± 4.98%. For the same compound, the “cell viabilities of A control cell lines (MTT assay)” value in series [3] was found to be 103 ± 2.86%. Also, in series [2], the viability was determined as 91.1 ± 18.7%.
Consider `CCc1ccccc1Sc1ccc2c(=O)c3ccccc3sc2c1Cl` [No. 18, 4-Chloro-3-(2-ethylphenylthio)-9H-thioxanthen-9-one], for which the “cell viabilities of A3 cell lines (MTT assay)” value in series [1] was 77.2 ± 5.23%. For the same compound, in series [3], the “cell viabilities of A control cell lines (MTT assay)” value came out at 73.2 ± 10.2%. Besides, the viability in series [2] was 104 ± 14.2%.
For `CC(C)c1ccc(Sc2ccc3c(=O)c4ccccc4sc3c2Cl)cc1` [No. 20, 4-Chloro-3-(4-isopropylphenylthio)-9H-thioxanthen-9-one], in that order: 93.9 ± 6.97%, 74.6 ± 11.2% and 110 ± 14.3%.
On to `CC(C)c1ccccc1Sc1ccc2c(=O)c3ccccc3sc2c1Cl` [No. 21, 4-Chloro-3-(2-isopropylphenylthio)-9H-thioxanthen-9-one], for which the “cell viabilities of A3 cell lines (MTT assay)” value in series [1] amounted to 93.7 ± 6.01%. The “cell viabilities of A control cell lines (MTT assay)” value in series [3] was determined as 83.5 ± 12.6%. Besides, the viability in series [2] was 107 ± 5.4%.
As for `Cc1ccc(C)c(Sc2ccc3c(=O)c4ccccc4sc3c2Cl)c1` [No. 11, 4-Chloro-3-(2,5-dimethylphenylthio)-9H-thioxanthen-9-one], the “cell viabilities of A3 cell lines (MTT assay)” value in series [1] is listed as 96.9 ± 5.20%. For the same compound, in series [3], the “cell viabilities of A control cell lines (MTT assay)” value is on record as 105 ± 2.56%. The viability in series [2] worked out at 94.4 ± 10.1%.
Take `Cc1cccc(Sc2ccc3c(=O)c4ccccc4sc3c2Cl)c1` [No. 8, 4-Chloro-3-(m-tolylthio)-9H-thioxanthen-9-one]: in series [1], the “cell viabilities of A3 cell lines (MTT assay)” value is 116 ± 1.49%. The “cell viabilities of A control cell lines (MTT assay)” value in series [3] came to 120 ± 1.51%. The viability in series [2] was found to be 74.8 ± 4.04%.
On to `CCOc1cccc(Sc2ccc3c(=O)c4ccccc4sc3c2Cl)c1` [No. 19, 4-Chloro-3-(3-ethoxylphenylthio)-9H-thioxanthen-9-one], for which, in series [1], the “cell viabilities of A3 cell lines (MTT assay)” value is given as 98.2 ± 4.79%. Besides, the “cell viabilities of A control cell lines (MTT assay)” value in series [3] amounted to 91.3 ± 1.74%. Further, in series [2], the viability was found to be 90.3 ± 14.4%.
As to `O=c1c2ccccc2sc2c(Cl)c(SC3CCCC3)ccc12` [No. 5, 4-Chloro-3-(cyclopentylthio)-9H-thioxanthen-9-one], the “cell viabilities of A3 cell lines (MTT assay)” value in series [1] is on record as 107 ± 7.17%. The “cell viabilities of A control cell lines (MTT assay)” value in series [3] is on record as 108 ± 7.69%. In addition, the viability in series [2] is 89.5 ± 13.7%.
For `CCSc1ccc2c(=O)c3ccccc3sc2c1Cl` [No. 2, 4-Chloro-3-(ethylthio)-9H-thioxanthen-9-one], in that order: 72.7 ± 2.60%, 85.1 ± 2.74% and 34 ± 7.95%.
Consider `O=c1c2ccccc2sc2c(Cl)c(Sc3ccc(Br)cc3)ccc12` [No. 22, 3-(4-Bromophenylthio)-4-chloro-9H-thioxanthen-9-one], for which the “cell viabilities of A3 cell lines (MTT assay)” value in series [1] was 70.8 ± 3.86%. In series [3], the “cell viabilities of A control cell lines (MTT assay)” value is recorded as 104 ± 1.89%. In addition, in series [2], the viability is 66.1 ± 0.66%.
In the same order, the values of `Cc1ccc(Sc2ccc3c(=O)c4ccccc4sc3c2Cl)cc1C` [No. 13, 4-Chloro-3-(3,4-dimethylphenylthio)-9H-thioxanthen-9-one] are 112 ± 1.86%, 113 ± 5.86% and 112 ± 11.2%.
In the same order, the values of `COc1ccccc1Sc1ccc2c(=O)c3ccccc3sc2c1Cl` [No. 15, 4-Chloro-3-(2-methoxylphenylthio)-9H-thioxanthen-9-one] are 99.0 ± 3.41%, 85.4 ± 9.66% and 73 ± 12.3%.
Regarding `O=c1c2ccccc2sc2c(Cl)c(Sc3cccc(Cl)c3)ccc12` [No. 30, 4-Chloro-3-(3-chlorophenylthio)-9H-thioxanthen-9-one], the “cell viabilities of A3 cell lines (MTT assay)” value in series [1] amounted to 92.2 ± 6.17%. Moreover, the “cell viabilities of A control cell lines (MTT assay)” value in series [3] amounted to 97.7 ± 1.46%. In addition, the viability in series [2] came to 101 ± 3.7%.
For `Cc1ccc(Sc2ccc3c(=O)c4ccccc4sc3c2Cl)cc1` [No. 9, 4-Chloro-3-(p-tolylthio)-9H-thioxanthen-9-one], in that order: 115 ± 4.55%, 119 ± 4.69% and 98.4 ± 12.8%.
